Article PMC3726004 (Bioorganic & medicinal chemistry, 2009)

Tests used:
α4β2* nAChRs [1] = target: T1, α4β2* nAChRs (Rattus norvegicus, UniProt P09483+P12390); test: [3H]nicotine; type: binding
VMAT2 = VMAT2 (Rattus norvegicus, UniProt Q01827); test: [3H]MTBZ or [3H]DTBZ binding to rat synaptic vesicle membranes
[2] = target: serotonin transporter (SERT) (Rattus norvegicus, UniProt P31652); test: [3H]5-HT uptake into rat hippocampal synaptosomes; type: biochemical
α4β2* nAChRs [3] = target: T1, α4β2* nAChRs; test: nicotine-evoked 86Rb+ efflux from rat thalamic synaptosomes; type: biochemical

VMAT2, sequence (Q01827 whole entry): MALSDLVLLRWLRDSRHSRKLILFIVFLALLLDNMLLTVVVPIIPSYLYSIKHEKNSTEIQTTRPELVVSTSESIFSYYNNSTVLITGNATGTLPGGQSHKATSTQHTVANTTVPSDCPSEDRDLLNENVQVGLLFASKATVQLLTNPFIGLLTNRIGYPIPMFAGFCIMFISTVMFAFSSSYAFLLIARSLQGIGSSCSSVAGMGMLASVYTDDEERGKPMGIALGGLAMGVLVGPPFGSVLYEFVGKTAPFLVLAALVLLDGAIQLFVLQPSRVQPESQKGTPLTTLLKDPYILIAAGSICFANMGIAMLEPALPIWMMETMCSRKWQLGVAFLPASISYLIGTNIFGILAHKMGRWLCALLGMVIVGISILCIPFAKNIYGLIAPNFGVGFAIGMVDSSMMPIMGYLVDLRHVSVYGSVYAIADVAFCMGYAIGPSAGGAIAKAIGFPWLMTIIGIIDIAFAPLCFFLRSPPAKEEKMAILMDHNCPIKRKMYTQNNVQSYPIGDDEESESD
T1 sequence (P09483 31-630): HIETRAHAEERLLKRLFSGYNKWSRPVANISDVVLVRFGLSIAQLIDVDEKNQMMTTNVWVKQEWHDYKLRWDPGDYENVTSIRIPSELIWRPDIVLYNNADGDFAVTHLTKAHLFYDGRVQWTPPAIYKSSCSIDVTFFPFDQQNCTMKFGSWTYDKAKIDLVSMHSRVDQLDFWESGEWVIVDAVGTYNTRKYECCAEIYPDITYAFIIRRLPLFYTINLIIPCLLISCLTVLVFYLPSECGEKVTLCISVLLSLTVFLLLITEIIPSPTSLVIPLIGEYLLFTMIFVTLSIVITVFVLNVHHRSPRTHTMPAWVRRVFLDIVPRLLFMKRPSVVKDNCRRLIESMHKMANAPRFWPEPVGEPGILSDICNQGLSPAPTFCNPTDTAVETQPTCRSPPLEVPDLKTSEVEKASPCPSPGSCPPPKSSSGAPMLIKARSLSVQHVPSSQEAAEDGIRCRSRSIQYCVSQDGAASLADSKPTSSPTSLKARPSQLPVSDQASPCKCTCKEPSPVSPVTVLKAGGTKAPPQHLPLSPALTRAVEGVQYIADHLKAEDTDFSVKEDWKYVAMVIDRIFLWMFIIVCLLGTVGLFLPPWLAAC
T1 sequence (P12390 25-500): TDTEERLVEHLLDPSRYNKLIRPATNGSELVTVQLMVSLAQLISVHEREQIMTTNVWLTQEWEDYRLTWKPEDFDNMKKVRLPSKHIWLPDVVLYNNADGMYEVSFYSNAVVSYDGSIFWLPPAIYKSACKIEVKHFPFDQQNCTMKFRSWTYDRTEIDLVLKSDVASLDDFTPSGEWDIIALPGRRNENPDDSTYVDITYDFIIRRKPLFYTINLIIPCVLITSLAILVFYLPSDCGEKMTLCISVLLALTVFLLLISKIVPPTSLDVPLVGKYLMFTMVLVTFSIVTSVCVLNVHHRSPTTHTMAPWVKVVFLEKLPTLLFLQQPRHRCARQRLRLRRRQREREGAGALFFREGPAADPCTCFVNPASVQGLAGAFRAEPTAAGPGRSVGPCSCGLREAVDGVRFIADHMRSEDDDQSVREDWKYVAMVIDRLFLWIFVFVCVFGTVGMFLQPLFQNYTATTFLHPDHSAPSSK
serotonin transporter (SERT), sequence (P31652 whole entry): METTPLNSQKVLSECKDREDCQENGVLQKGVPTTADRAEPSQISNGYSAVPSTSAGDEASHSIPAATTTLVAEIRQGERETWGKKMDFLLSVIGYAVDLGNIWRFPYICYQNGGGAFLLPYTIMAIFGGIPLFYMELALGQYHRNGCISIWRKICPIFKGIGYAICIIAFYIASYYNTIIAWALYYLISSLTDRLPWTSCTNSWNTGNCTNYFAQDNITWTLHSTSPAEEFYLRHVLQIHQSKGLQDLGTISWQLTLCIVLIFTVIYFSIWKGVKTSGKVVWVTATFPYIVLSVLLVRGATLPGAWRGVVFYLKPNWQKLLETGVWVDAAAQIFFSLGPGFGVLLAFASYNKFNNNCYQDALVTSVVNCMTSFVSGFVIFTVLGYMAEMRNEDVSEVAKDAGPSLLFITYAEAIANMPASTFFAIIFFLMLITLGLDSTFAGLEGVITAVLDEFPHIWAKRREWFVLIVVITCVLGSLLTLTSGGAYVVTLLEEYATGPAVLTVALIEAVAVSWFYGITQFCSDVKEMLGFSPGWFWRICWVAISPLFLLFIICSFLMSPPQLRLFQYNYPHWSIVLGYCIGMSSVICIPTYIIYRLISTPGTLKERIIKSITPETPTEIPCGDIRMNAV

Structure (SMILES) | fold less potent than lobeline in inhibiting [3H]nicotine binding (α4β2*) (α4β2* nAChRs [1]) | potency compared with lobeline at VMAT2 (VMAT2) | other results
Cc1ccc(S(=O)(=O)OC(C[C@@H]2CCCC(CC(=O)c3ccccc3)N2C)c2ccccc2)cc1.Cl (stereo in doubt) [Compound 11, (2S, 6S, 2R)-2-[6-(2-p-Toluenesulfonyloxy-2-phenylethyl)-1-methylpiperidin-2-yl]-1-phenylethanone hydrochloride] | – | – | potency compared with lobeline at α4β2* nAChRs ([3H]nicotine binding) (α4β2* nAChRs [1]): equipotent
CC(=O)OC(C[C@@H]1CCCC(CC(=O)c2ccccc2)N1C)c1ccccc1.Cl (stereo in doubt) [Compound 5, (2S, 6S, 2R)-2-[6-(2-Acetyloxy-2-phenylethyl)-1-methylpiperidin-2-yl]-1-phenylethanone hydrochloride] | 15 to 125 fold | equipotent | potency compared with lobeline at SERT [2]: equipotent
CN1C(CC(=O)c2ccccc2)CCC[C@H]1CC(OS(=O)(=O)c1ccccc1)c1ccccc1.Cl (stereo in doubt) [Compound 10, (2S, 6S, 2R)-2-[6-(2-Benzenesulfonyloxy-2-phenylethyl)-1-methylpiperidin-2-yl]-1-phenylethanone hydrochloride] | – | equipotent | extent of inhibition of nicotine-evoked 86Rb+ efflux (α4β2* nAChRs [3]): completely inhibited; potency compared with lobeline at SERT [2]: equipotent
COc1ccc(C(=O)O[C@@H](C[C@@H]2CCC[C@H](CC(=O)c3ccccc3)N2C)c2ccccc2)cc1.Cl [Compound 4, (2S, 6S, 2R)-2-[6-(2-Anisoyloxy-2-phenylethyl)-1-methylpiperidin-2-yl]-1-phenylethanone hydrochloride] | 215–4800 fold | equipotent | –
CCCC(=O)OC(C[C@@H]1CCCC(CC(=O)c2ccccc2)N1C)c1ccccc1.Cl (stereo in doubt) [Compound 7, (2S, 6S, 2R)-2-[6-(2-Butyryloxy-2-phenylethyl)-1-methylpiperidin-2-yl]-1-phenylethanone hydrochloride] | 15 to 125 fold | – | –
CN1[C@@H](CC(=O)c2ccccc2)CCC[C@H]1C[C@H](OC(=O)c1cccs1)c1ccccc1.Cl [Compound 9, (2S, 6S, 2R)-2-[6-(2-(2-Thiophen)-carboxyl-2-phenylethyl)-1-methylpiperidin-2-yl]-1-phenylethanone hydrochloride] | 215–4800 fold | – | –
CC(C)C(=O)OC(C[C@@H]1CCCC(CC(=O)c2ccccc2)N1C)c1ccccc1.Cl (stereo in doubt) [Compound 8, (2S, 6S, 2R)-2-[6-(2-Isobutyryloxy-2-phenylethyl)-1-methylpiperidin-2-yl]-1-phenylethanone hydrochloride] | 15 to 125 fold | – | –
CN1C(CC(=O)c2ccccc2)CCC[C@H]1CC(OC(=O)c1ccccc1)c1ccccc1.Cl (stereo in doubt) [Compound 2, (2S, 6S, 2R)-2-[6-(2-Benzoyloxy-2-phenylethyl)-1-methylpiperidin-2-yl]-1-phenylethanone hydrochloride] | 215–4800 fold | – | fold less potent than analog 10 in the [3H]nicotine binding assay (α4β2* nAChRs [1]): 360 fold; extent of inhibition of nicotine-evoked 86Rb+ efflux (α4β2* nAChRs [3]): completely inhibited
CCC(=O)OC(C[C@@H]1CCCC(CC(=O)c2ccccc2)N1C)c1ccccc1.Cl (stereo in doubt) [Compound 6, (2S, 6S, 2R)-2-[6-(2-Propionyloxy-2-phenylethyl)-1-methylpiperidin-2-yl]-1-phenylethanone hydrochloride] | 15 to 125 fold | – | –
